The target in assay [1] is rat TAAR1 (Rattus norvegicus (Rat), UniProt Q923Y9). As to the kind of experiment: Radioligand binding assay on rat TAAR1.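 Also: membranes from HEK293 cells stably transfected with rat TAAR1, tritiated TAAR1 radioligand, 1 h incubation at 4 °C, nonspecific binding determined with excess unlabeled ligand.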
Experimental: (§1) Membrane Preparation and Radioligand Binding.
HEK-293 cells stably expressing rat TAAR1 were maintained at 37° C. and 5% CO2 in DMEM high glucose medium, containing fetal calf serum (10%, heat inactivated for 30 min at 56° C.), penicillin/streptomycin (1%), and 375 μg/ml geneticin (Gibco). Cells were released from culture flasks using trypsin/EDTA, harvested, washed twice with ice-cold PBS (without Ca^2+ and Mg^2+), pelleted at 1'000 rpm for 5 min at 4° C., frozen and stored at −80° C. Frozen pellets were suspended in 20 ml HEPES-NaOH (20 mM, pH 7.4) containing 10 mM EDTA and homogenized with a Polytron (PT 6000, Kinematica) at 14′000 rpm for 20 s. The homogenate was centrifuged at 48'000×g for 30 min at 4° C. Subsequently, the supernatant was removed and discarded, and the pellet resuspended in 20 ml HEPES-NaOH (20 mM, pH 7.4) containing 0.1 mM EDTA using the Polytron (20 s at 14'000 rpm). This procedure was repeated and the final pellet resuspended in HEPES-NaOH containing 0.1 mM EDTA and homogenized using the Polytron. Typically, aliquots of 2 ml membrane portions were stored at −80° C. With each new membrane batch the dissociation constant (Kd) was determined via a saturation curve. […] Nonspecific binding was defined as the amount of 3 [H]—(S)-4-[(ethyl-phenyl-amino)-methyl]-4,5-dihydro-oxazol-2-ylamine bound in the presence of 10 M unlabeled ligand. All compounds were tested at a broad range of concentrations (10 pM to 10 μM) in duplicates. […] The 96 deep well plates were incubated for 1 hr at 4° C. Incubations were terminated by rapid filtration through Unifilter-96 plates (Packard Instrument Company) and glass filters GF/C (Perkin Elmer) presoaked for 1 hr in polyethylenimine (0.3%) and washed 3 times with 1 ml of cold binding buffer. After addition of 45 μl of Microscint 40 (PerkinElmer) the Unifilter-96 plate was sealed and after 1 hr the radioactivity counted using a TopCount Microplate Scintillation Counter (Packard Instrument Company).
In assay [2] the target is mouse TAAR1 (Mus musculus (Mouse), UniProt Q923Y8). The experiment in a line: Radioligand binding assay on mouse TAAR1.
Experimental: Radioligand Binding Assay on Mouse TAAR1
as §1
HEK-293 cells stably expressing mouse TAAR1 were maintained at 37° C. and 5% CO2 in DMEM high glucose medium, containing fetal calf serum (10%, heat inactivated for 30 min at 56° C.), penicillin/streptomycin (1%), and 375 μg/ml geneticin (Gibco). Cells were released from culture flasks using trypsin/EDTA, harvested, washed twice with ice-cold PBS (without Ca^2+ and Mg^2+), pelleted at 1'000 rpm for 5 min at 4° C., frozen and stored at −80° C. Frozen pellets were suspended in 20 ml HEPES-NaOH (20 mM, pH 7.4) containing 10 mM EDTA and homogenized with a Polytron (PT 6000, Kinematica) at 14'000 rpm for 20 s. The homogenate was centrifuged at 48'000×g for 30 min at 4° C. Subsequently, the supernatant was removed and discarded, and the pellet resuspended in 20 ml HEPES-NaOH (20 mM, pH 7.4) containing 0.1 mM EDTA using the Polytron (20 s at 14'000 rpm). This procedure was repeated and the final pellet resuspended in HEPES-NaOH containing 0.1 mM EDTA and homogenized using the Polytron. Typically, aliquots of 2 ml membrane portions were stored at −80° C. With each new membrane batch the dissociation constant (Kd) was determined via a saturation curve. The TAAR1 radioligand ^3[H]—(S)-4-[(ethyl-phenyl-amino)-methyl]-4,5-dihydro-oxazol-2-ylamine (described in WO 2008/098857) was used at a concentration equal to the calculated Kd value, that was usually around 0.7 nM, resulting in the binding of approximately 0.5% of the radioligand and a specific binding representing approximately 70% of the total binding. Nonspecific binding was defined as the amount of ^3[H]—(S)-4-[(ethyl-phenyl-amino)-methyl]-4,5-dihydro-oxazol-2-ylamine bound in the presence of 10 M unlabeled ligand. All compounds were tested at a broad range of concentrations (10 pM to 10 μM) in duplicates. […] The 96 deep well plates were incubated for 1 hr at 4° C. Incubations were terminated by rapid filtration through Unifilter-96 plates (Packard Instrument Company) and glass filters GF/C (Perkin Elmer) presoaked for 1 hr in polyethylenimine (0.3%) and washed 3 times with 1 ml of cold binding buffer. After addition of 45 μl of Microscint 40 (PerkinElmer) the Unifilter-96 plate was sealed and after 1 hr the radioactivity counted using a TopCount Microplate Scintillation Counter (Packard Instrument Company).
Setting [3] is: read-out: Ki (μM) rat, rat TAAR1, HEK-293 membranes, second value of cell mouse/rat.
[4] abbreviates: read-out: Ki (μM) mouse, mouse TAAR1, HEK-293 membranes, first value of cell mouse/rat.

Read-outs that look alike come from different tables or passages of the source. Where only a bound is given, the exact number is not on record here.

One may read the Ki as the dissociation constant of the complex between target and ligand, obtained from inhibition or displacement.

Sequence of rat TAAR1 (Q923Y9 whole entry): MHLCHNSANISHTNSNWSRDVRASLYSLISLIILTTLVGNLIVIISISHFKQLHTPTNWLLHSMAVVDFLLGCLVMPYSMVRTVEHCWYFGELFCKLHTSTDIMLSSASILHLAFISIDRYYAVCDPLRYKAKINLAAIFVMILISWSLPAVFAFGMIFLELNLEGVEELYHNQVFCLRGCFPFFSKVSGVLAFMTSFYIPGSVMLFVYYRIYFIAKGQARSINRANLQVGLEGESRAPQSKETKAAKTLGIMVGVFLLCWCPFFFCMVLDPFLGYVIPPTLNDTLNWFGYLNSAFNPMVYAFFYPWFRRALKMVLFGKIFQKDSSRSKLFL
Sequence of mouse TAAR1 (Q923Y8 whole entry): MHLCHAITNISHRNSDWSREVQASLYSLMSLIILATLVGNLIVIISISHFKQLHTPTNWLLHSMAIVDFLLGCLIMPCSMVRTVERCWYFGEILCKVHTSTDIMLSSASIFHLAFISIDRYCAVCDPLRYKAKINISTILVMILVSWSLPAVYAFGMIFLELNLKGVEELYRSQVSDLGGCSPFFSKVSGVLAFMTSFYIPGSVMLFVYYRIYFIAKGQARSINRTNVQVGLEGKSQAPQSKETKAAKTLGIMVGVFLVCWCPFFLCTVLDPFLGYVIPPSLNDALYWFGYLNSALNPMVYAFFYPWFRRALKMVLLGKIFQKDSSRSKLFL

Consider `O=C(Nc1ccc([C@@H]2O[C@H]3CN[C@@H]2C3)cc1)c1[nH]nc(C2CC2)c1Cl` [Example 82, 4-Chloro-3-cyclopropyl-N-[4-[(1R,3S,4R)-2-oxa-5-azabicyclo[2.2.1]heptan-3-yl]phenyl]-11H-pyrazole-5-carboxamide], for which the Ki in assay [1] (setting [3]) came out at 0.0339 µM; in assay [2] (setting [4]), 0.0035 µM.
For the molecule `FC(F)(F)c1ccc(Nc2ccc([C@H]3O[C@@H]4CN[C@H]3C4)cc2)nc1` [Example 19, N-[4-[(1S,3R,4S)-2-Oxa-5-azabicyclo[2.2.1]heptan-3-yl]phenyl]-5-(trifluoromethyl)pyridin-2-amine], the values for the Ki in assay [1] and in assay [2] were 0.0641 µM and 0.0071 µM, respectively.
In the case of `CCCCc1n[nH]c(C(=O)Nc2ccc([C@@H]3O[C@H]4CN[C@@H]3C4)cc2)c1F` [Example 92, 3-Butyl-4-fluoro-N-[4-[(1R,3S,4R)-2-oxa-5-azabicyclo[2.2.1]heptan-3-yl]phenyl]-111H-pyrazole-5-carboxamide], the figures for the Ki in assay [1] (setting [3]) and in assay [2] (setting [4]) were 0.0879 µM and 0.0033 µM, respectively.
On to `O=C(Nc1cccc([C@@H]2O[C@H]3CN[C@@H]2C3)c1)c1cccc(Cl)c1` [Example 1, 3-Chloro-N-[3-[(1R,3S,4R)-2-oxa-5-azabicyclo[2.2.1]heptan-3-yl]phenyl]benzamide], for which the Ki in assay [1] was 0.132 µM; in assay [2] it was 2.99 µM.
For `CCOc1ccc(NC(=O)c2ccc([C@H]3O[C@@H]4CN[C@H]3C4)cc2)cn1` [Example 62, N-(6-Ethoxy-3-pyridyl)-4-[(1S,3R,4S)-2-oxa-5-azabicyclo[2.2.1]heptan-3-yl]benzamide], in that order: 0.107 µM and 0.0049 µM.
For `O=C(Nc1ccc(Cl)cc1)Nc1ccc([C@H]2O[C@@H]3CN[C@H]2C3)cc1` [Example 33, 1-(4-Chlorophenyl)-3-[4-[(1S,3R,4S)-2-oxa-5-azabicyclo[2.2.1]heptan-3-yl]phenyl]urea], in that order: 0.0116 µM and 0.0035 µM.
For `O=C(Nc1ccc(C(F)(F)F)cc1)c1ccc([C@H]2O[C@@H]3CN[C@H]2C3)cc1` [Example 59, 4-[(1S,3R,4S)-2-Oxa-5-azabicyclo[2.2.1]heptan-3-yl]-N-[4-(trifluoromethyl)phenyl]benzamide], in that order: 1.02 µM and 0.0022 µM.
For the molecule `O=C(Nc1ccc([C@H]2O[C@@H]3CN[C@H]2C3)cc1)c1ccc(OCC(F)(F)F)nc1` [Example 16, N-[4-[(1S,3R,4S)-2-Oxa-5-azabicyclo[2.2.1]heptan-3-yl]phenyl]-6-(2,2,2-trifluoroethoxy)pyridine-3-carboxamide], the values for the Ki in assay [1] and in assay [2] were 0.142 µM and 0.0118 µM, respectively.
Consider `CC(C)c1cc(C(=O)Nc2ccc([C@@H]3O[C@H]4CN[C@@H]3C4)cc2)[nH]n1` [Example 75, 3-Isopropyl-N-[4-[(1R,3S,4R)-2-oxa-5-azabicyclo[2.2.1]heptan-3-yl]phenyl]-1H-pyrazole-5-carboxamide], for which the Ki in assay [1] turned out to be 0.239 µM; in assay [2], 0.0099 µM.
As to `c1ccc([C@@H]2O[C@H]3CN[C@@H]2C3)cc1` [Example 6, (1R,3S,4R)-3-Phenyl-2-oxa-5-azabicyclo[2.2.1]heptane], the figures for the Ki in assay [1] and in assay [2] were 0.814 µM and 1.54 µM, respectively.
Turning to `CCCCNc1ccc([C@H]2O[C@@H]3CN[C@H]2C3)cc1` [Example 41, N-Butyl-4-[(1S,3R,4S)-2-oxa-5-azabicyclo[2.2.1]heptan-3-yl]aniline], the results for the Ki in assay [1] (setting [3]) and in assay [2] were 2.83 µM and 0.0222 µM, respectively.
Regarding `Fc1ccccc1[C@@H]1O[C@H]2CN[C@@H]1C2` [Example 106, (1R,3S,4R)-3-(2-Fluorophenyl)-2-oxa-5-azabicyclo[2.2.1]heptane], the Ki in assay [1] is 0.836 µM; in assay [2], 1.03 µM.
Consider `FC(F)(F)c1cnc(Nc2ccc([C@H]3O[C@@H]4CN[C@H]3C4)cc2)cn1` [Example 22, N-[4-[(1S,3R,4S)-2-Oxa-5-azabicyclo[2.2.1]heptan-3-yl]phenyl]-5-(trifluoromethyl)pyrazin-2-amine], for which the Ki in assay [1] is 0.34 µM; in assay [2] it was 0.0076 µM.
For `FC(F)(F)COc1ccnc(Nc2ccc([C@H]3O[C@@H]4CN[C@H]3C4)cc2)n1` [Example 79, N-[4-[(1S,3R,4S)-2-Oxa-5-azabicyclo[2.2.1]heptan-3-yl]phenyl]-4-(2,2,2-trifluoroethoxy)pyrimidin-2-amine], in that order: 0.0841 µM and 0.006 µM.
For `O=C(Nc1ccc(Cl)cc1)c1ccc([C@H]2O[C@@H]3CN[C@H]2C3)cc1` [Example 55], in that order: 0.0123 µM and 0.0007 µM.
For `CCOc1ccc(C(=O)Nc2ccc([C@@H]3O[C@H]4CN[C@@H]3C4)cc2)cn1` [Example 13, 6-Ethoxy-N-[4-[(1R,3S,4R)-2-oxa-5-azabicyclo[2.2.1]heptan-3-yl]phenyl]pyridine-3-carboxamide], in that order: 346 µM and 0.0063 µM.
Turning to `O=C(Nc1ccc(Br)cc1)c1ccc([C@H]2O[C@@H]3CN[C@H]2C3)cc1` [Example 56, N-(4-Bromophenyl)-4-[(1S,3R,4S)-2-oxa-5-azabicyclo[2.2.1]heptan-3-yl]benzamide], the Ki was found to be 0.0501 µM in assay [1] and 0.0009 µM in assay [2].
As to `O=C(Nc1cccc([C@@H]2O[C@H]3CN[C@@H]2C3)c1)c1ccc(Cl)cc1` [Example 2, 4-Chloro-N-[3-[(1R,3S,4R)-2-oxa-5-azabicyclo[2.2.1]heptan-3-yl]phenyl]benzamide], the Ki in assay [1] turned out to be 0.0794 µM; in assay [2] it was 2.51 µM.
For `FC(F)(F)c1cc(Nc2ccc([C@H]3O[C@@H]4CN[C@H]3C4)cc2)ccn1` [Example 35, N-[4-[(1S,3R,4S)-2-Oxa-5-azabicyclo[2.2.1]heptan-3-yl]phenyl]-2-(trifluoromethyl)pyridin-4-amine], in that order: 0.819 µM and 0.011 µM.
For `O=C(COCC(F)(F)F)Nc1ccc([C@H]2O[C@@H]3CN[C@H]2C3)cc1` [Example 66, N-[4-[(1S,3R,4S)-2-Oxa-5-azabicyclo[2.2.1]heptan-3-yl]phenyl]-2-(2,2,2-trifluoroethoxy)acetamide], in that order: 3.96 µM and 0.0123 µM.
For `O=C(Nc1ccc(Cl)nc1)c1ccc([C@H]2O[C@@H]3CN[C@H]2C3)cc1` [Example 60, N-(6-Chloro-3-pyridyl)-4-[(1S,3R,4S)-2-oxa-5-azabicyclo[2.2.1]heptan-3-yl]benzamide], in that order: 5.34 µM and 0.0033 µM.
Consider `CCOc1ccc(NC(=O)c2ccc([C@@H]3O[C@H]4CN[C@@H]3C4)cc2)cc1` [Example 88, N-(4-Ethoxyphenyl)-4-[(1R,3S,4R)-2-oxa-5-azabicyclo[2.2.1]heptan-3-yl]benzamide], for which the Ki is above 1.45 µM in assay [1] and 0.0255 µM in assay [2].
For `CCc1n[nH]c(C(=O)Nc2ccc([C@@H]3O[C@H]4CN[C@@H]3C4)cc2)c1Cl` [Example 76, 4-Chloro-3-ethyl-N-[4-[(1R,3S,4R)-2-oxa-5-azabicyclo[2.2.1]heptan-3-yl]phenyl]-1H-pyrazole-5-carboxamide], in that order: 0.0842 µM and 0.0047 µM.
For `O=C(CCC(F)(F)F)Nc1ccc([C@@H]2O[C@H]3CN[C@@H]2C3)cc1` [Example 91, 4,4,4-Trifluoro-N-[4-[(1R,3S,4R)-2-oxa-5-azabicyclo[2.2.1]heptan-3-yl]phenyl]butanamide], the Ki was above 1.45 µM in assay [1] and 0.031 µM in assay [2].
For `FC(F)(F)COc1nccc(Nc2ccc([C@@H]3O[C@H]4CN[C@@H]3C4)cc2)n1` [Example 83, N-[4-[(1R,3S,4R)-2-Oxa-5-azabicyclo[2.2.1]heptan-3-yl]phenyl]-2-(2,2,2-trifluoroethoxy)pyrimidin-4-amine], in that order: 0.19 µM and 0.0097 µM.
For `O=C(Nc1ccc([C@H]2O[C@@H]3CN[C@H]2C3)cc1)c1ccc(C(F)(F)F)cn1` [Example 36, N-[4-[(1S,3R,4S)-2-Oxa-5-azabicyclo[2.2.1]heptan-3-yl]phenyl]-5-(trifluoromethyl)pyridine-2-carboxamide], in that order: 1.28 µM and 0.0325 µM.
For `FC(F)(F)c1cnc(Nc2ccc([C@@H]3O[C@H]4CN[C@@H]3C4)cc2)nc1` [Example 31, N-[4-[(1R,3S,4R)-2-Oxa-5-azabicyclo[2.2.1]heptan-3-yl]phenyl]-5-(trifluoromethyl)pyrimidin-2-amine], in that order: 0.0777 µM and 0.0221 µM.
On to `O=C(Nc1ccc([C@@H]2O[C@H]3CN[C@@H]2C3)cc1)c1ccnc(C(F)(F)F)n1` [Example 81, N-[4-[(1R,3S,4R)-2-Oxa-5-azabicyclo[2.2.1]heptan-3-yl]phenyl]-2-(trifluoromethyl)pyrimidine-4-carboxamide], for which the Ki in assay [1] was found to be 0.189 µM; in assay [2], 0.0271 µM.
Take `Clc1ccc(Nc2ccc([C@@H]3O[C@H]4CN[C@@H]3C4)cc2)nc1` [Example 24, 5-Chloro-N-[4-[(1R,3S,4R)-2-oxa-5-azabicyclo[2.2.1]heptan-3-yl]phenyl]pyridin-2-amine]: the Ki in assay [1] came to 0.0318 µM; in assay [2], 0.0033 µM.
For `CCOc1ccc(C(=O)Nc2ccc([C@H]3O[C@@H]4CN[C@H]3C4)cc2)cn1` [Example 15, 6-Ethoxy-N-[4-[(1S,3R,4S)-2-oxa-5-azabicyclo[2.2.1]heptan-3-yl]phenyl]pyridine-3-carboxamide], in that order: 1.9 µM and 0.0155 µM.
As to `O=C(Nc1ccc(Cl)nc1)c1ccc([C@@H]2O[C@H]3CN[C@@H]2C3)cc1` [Example 94, N-(6-Chloro-3-pyridyl)-4-[(1R,3S,4R)-2-oxa-5-azabicyclo[2.2.1]heptan-3-yl]benzamide], the Ki was above 1.45 µM in assay [1] and 0.0251 µM in assay [2].
For `Cc1cn[nH]c1C(=O)Nc1ccc([C@H]2O[C@@H]3CN[C@H]2C3)cc1` [Example 47, 4-Methyl-N-[4-[(1S,3R,4S)-2-oxa-5-azabicyclo[2.2.1]heptan-3-yl]phenyl]-1H-pyrazole-5-carboxamide], in that order: 2.3 µM and 0.313 µM.

Values taken from patent publication US9790230B2 (Hoffmann-La Roche Inc., priority 2015, dated 2017).
